In BindingDB's records for doi:10.1021/acschembio.6b00382 (Institut de Ge´ne´tique et de Biologie Mole´culaire et …, 2016) one finds IC50 data, which are given here for nine compounds.

Conditions in all cases: pH 7
Assay [1] concerns the target Aldo-keto reductase family 1 member B10 [K125R,V301L] (Homo sapiens, UniProt O60218, K125R/V301L). Briefly: IC50-Activity Assay (AR). How it is done: (§1) The IC50-activity assays were carried out on the basis of the quantification of the NADPH consumption that takes place when the enzyme catalyzes the conversion of the aldehyde substrate into the alcohol product. […] The final reaction volume was 600 μL per reaction. All compounds were dissolved in dimethyl sulfoxide (DMSO), and the corresponding solution was added to the cell to be assayed in a final concentration of 2% (v/v) DMSO and incubated for 5 min at 25 °C prior to the addition of the substrate. The reaction was initiated by the addition of 1 mM glyceraldehyde, and the decrease in optical density at 340 nm was monitored for at least 3 min at 25 °C in a UV−vis spectrophotometer (Cary 400 Bio (Varian)).

Assay [2] addresses T1, Aldo-keto reductase family 1 member B10 (Homo sapiens, UniProt O60218). Briefly: IC50-Activity Assay (AR). How it is done:
as §1

Assay [3] deals with T1, Aldo-keto reductase family 1 member B10. Briefly: IC50-Activity Assay (AKR1B10). The method, then: as §1, with “60” for “1”, “glyceraldehyde and 0.2 mM pyridine-3-aldehyde,” for “glyceraldehyde,”, “opticaldensity” for “optical density”
The target of assay [4] is Aldo-keto reductase family 1 member B1 (Homo sapiens, UniProt P15121). Briefly: IC50-Activity Assay (AR). How it is done: as §1

What is called IC50 is the concentration that gives 50% inhibition. Low readings indicate greater potency in that assay, high ones weaker potency in that assay.

SMILES strings stand for the structures.

Sequence of Aldo-keto reductase family 1 member B10 [K125R,V301L] (O60218 whole entry K125R/V301L): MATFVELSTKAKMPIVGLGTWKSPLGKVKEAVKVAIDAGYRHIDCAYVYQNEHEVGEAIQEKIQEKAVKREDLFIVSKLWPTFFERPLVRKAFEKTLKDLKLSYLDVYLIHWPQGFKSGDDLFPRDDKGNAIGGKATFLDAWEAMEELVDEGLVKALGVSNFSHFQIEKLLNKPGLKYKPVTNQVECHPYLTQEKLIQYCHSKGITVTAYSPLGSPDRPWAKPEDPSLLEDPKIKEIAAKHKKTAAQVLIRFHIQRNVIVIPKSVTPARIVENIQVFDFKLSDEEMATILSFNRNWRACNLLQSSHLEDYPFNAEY
T1 sequence (O60218 whole entry): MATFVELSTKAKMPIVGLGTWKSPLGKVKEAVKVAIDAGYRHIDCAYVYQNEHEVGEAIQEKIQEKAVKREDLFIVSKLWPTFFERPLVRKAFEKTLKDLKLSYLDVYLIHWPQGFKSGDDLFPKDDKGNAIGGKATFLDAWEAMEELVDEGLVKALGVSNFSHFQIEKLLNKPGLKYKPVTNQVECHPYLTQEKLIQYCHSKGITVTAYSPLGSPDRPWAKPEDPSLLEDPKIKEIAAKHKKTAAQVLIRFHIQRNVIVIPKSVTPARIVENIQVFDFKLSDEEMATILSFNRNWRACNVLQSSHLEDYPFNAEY

As to `O=C(O)COc1cc(Cl)ccc1C(=O)NCc1c(F)c(F)c(Br)c(F)c1F` [MK319], the IC50 is 7 µM in assay [1], 7 µM in assay [2] and 3.4 µM in assay [3].

With `O=C(O)COc1cc(Cl)ccc1C(=O)NCc1c(Br)cc(Br)cc1Br` [2-(5-chloro-2-((2,4,6-tribromobenzyl)carbamoyl)phenoxy)acetic acid], the IC50 was found to be 1 µM in assay [1], 21.4 µM in assay [4], 1 µM in assay [2] and 0.43 µM in assay [3].

Regarding `O=C(O)COc1cc(Cl)ccc1C(=O)NCc1ccc(Br)cc1F` [IDD388], the IC50 in assay [1] amounted to 4.4 µM; in assay [2], 4.4 µM; in assay [3], 2.7 µM.

Turning to `CC1=C(CC(=O)O)c2cc(F)ccc2/C1=C\c1ccc([S@@+](C)[O-])cc1` [cis-5-Fluoro-2-methyl-1-((p-methylsulfinyl)benzylidene)indene-3-acetic acid], the IC50 in assay [1] stood at 2.69 µM. This counts as single-digit micromolar.

For `O=C(O)COc1cc(Cl)ccc1C(=O)NCc1ccc(Br)cc1` [MK181], the IC50 in assay [1] came out at 4.5 µM; in assay [2], 4.5 µM; in assay [3], 3.7 µM.

`COc1ccc2c(C(=S)N(C)CC(=O)O)cccc2c1C(F)(F)F` [N-{[6-methoxy-5-(trifluoromethyl)naphthalen-1-yl]carbonothioyl}-N-methylglycine] had a half-inhibitory concentration (IC50) in assay [3] of 0.0012 µM.

`O=C(O)COc1cc(F)ccc1C(=S)NCc1ccc(Br)cc1F` [IDD594]: in assay [4], the IC50 is 0.003 µM. This lies in the single-digit nanomolar range.

Take `COc1c(Br)c(Br)c(Br)c(Br)c1Cn1c(=O)ccn(CC(=O)O)c1=O` [2-(2,4-dioxo-3-(2,3,4,5-tetrabromo-6-methoxybenzyl)-3,4-dihydropyrimidin-1(2H)-yl)acetic acid]: in assay [1], the IC50 worked out at 0.45 µM. This lies in the sub-micromolar range.

With `O=C(O)COc1cc(Cl)ccc1C(=O)NCc1c(Br)c(Br)c(Br)c(Br)c1Br` [2-(5-chloro-2-(((perbromophenyl)methyl)carbamoyl)phenoxy)acetic acid], the IC50 in assay [1] came out at 0.08 µM; in assay [4] it was 21.7 µM; in assay [2], 0.08 µM; in assay [3], 0.03 µM.
